Values of other authors in patent publication US4146613A, “Oral anti-diabetic drug composition” (THERA Gesellschaft fur Patentverwertung mbH, priority 1976, dated 1979).

Tested on: blood sugar

kallikrein
persistence of blood sugar lowering effect (after administering for several days, for example after three days): the effect would diminish or disappear | blood sugar lowering (also if applied orally, Frey et al 1932): lower slightly the blood sugar
